PubChem BioAssay (NCI)
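Protocol summary: plate cells (96-well), add compound at 5 concentrations, incubate 48 h, interpolate endpoints linearly. GI50 = concentration required for 50% inhibition of growth. At the TGI there is no net growth.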

Legend:
Assay in all cases: NCI tumour cell line growth inhibition, 48 h
[1] = system: A549 NSCLC
[2] = system: BT-549 breast
[3] = system: COLO 205 colon
[4] = system: DMS 114 small cell lung
[5] = system: DU-145 prostate
[6] = system: K-562 leukemia
[7] = system: MDA-MB-435
[8] = system: NCI-H522 lung
[9] = system: SNB-19 CNS
[10] = system: DMS 273 small cell lung

SMILES: S=C1NC2(CCCCCC2)NN1c1ccccc1
- TGI [1]: > 100 µM
- TGI [2]: > 100 µM
- TGI [3]: 0.431 µM
- TGI [4]: > 100 µM
- TGI [5]: > 100 µM
- TGI [6]: 16.6 µM
- TGI [7]: > 100 µM
- TGI [8]: > 100 µM
- TGI [9]: > 100 µM

SMILES: CN(C)c1ccc(C(C=C2c3ccccc3Sc3ccccc32)=C(C#N)C#N)cc1
- TGI [1]: > 100 µM
- TGI [3]: > 100 µM
- TGI [4]: > 100 µM
- TGI [10]: > 100 µM
- TGI [6]: > 100 µM
- TGI [9]: > 100 µM

SMILES: O=S1(=O)C[C@H](O)[C@H](O)CS1
- TGI [1]: > 100 µM
- TGI [3]: > 100 µM
- TGI [4]: > 100 µM
- TGI [10]: > 100 µM
- TGI [6]: > 100 µM
- TGI [8]: > 100 µM
- TGI [9]: > 100 µM

SMILES: Cc1ccc(NC(=O)C(=O)C(C(=O)c2ccc3ccccc3c2)C2OC(=O)c3ccccc32)cc1C (stereo not given)
- TGI [1]: 82.4 µM
- TGI [3]: 32.6 µM
- TGI [4]: 41.3 µM
- TGI [10]: 30.3 µM
- TGI [6]: 59.7 µM
- TGI [9]: 21.3 µM

SMILES: C=C1C(=O)O[C@@H]2C[C@@H]1CC/C(C)=C/CC/C(C)=C/CC[C@@]2(C)O
- GI50 [1]: 18.2 µM
- TGI [1]: 41.2 µM
- GI50 [2]: 21.1 µM
- TGI [2]: 40.4 µM
- GI50 [3]: 34.1 µM
- TGI [3]: 99.2 µM
- GI50 [5]: 14 µM
- TGI [5]: 30.2 µM
- GI50 [6]: 4.7 µM
- TGI [6]: 17.3 µM
- GI50 [7]: 5.07 µM
- TGI [7]: 18.5 µM
- GI50 [8]: 6.36 µM
- TGI [8]: 23.7 µM
- GI50 [9]: 28.4 µM
- TGI [9]: 76.2 µM

SMILES: CCN1CCN(C(c2ccc(C(F)(F)F)cc2)c2ccc3cccnc3c2O)CC1 (stereo not given)
- GI50 [1]: 1.31 µM
- TGI [1]: 12.1 µM
- GI50 [2]: 1.4 µM
- TGI [2]: 11.6 µM
- GI50 [3]: 3.35 µM
- TGI [3]: 13.1 µM
- GI50 [5]: 5.56 µM
- TGI [5]: 18.7 µM
- GI50 [6]: 3.49 µM
- TGI [6]: 14.6 µM
- GI50 [7]: 3.76 µM
- TGI [7]: 17.8 µM
- GI50 [8]: 5.01 µM
- TGI [8]: 18 µM
- GI50 [9]: 1.51 µM
- TGI [9]: 19.8 µM

SMILES: COc1ccc(C(=O)C(c2ccc(OC)cc2)C2(O)C(=O)Nc3ccc([N+](=O)[O-])cc32)cc1 (stereo not given)
- TGI [1]: > 100 µM
- TGI [3]: > 100 µM
- TGI [4]: > 100 µM
- TGI [10]: > 100 µM
- TGI [6]: > 100 µM
- TGI [8]: > 100 µM
- TGI [9]: > 100 µM

SMILES: CCCCCCNC(=O)c1cc(NCc2cc(O)ccc2O)ccc1O
- GI50 [1]: 23.5 µM
- TGI [1]: 71.5 µM
- GI50 [2]: 1.14 µM
- TGI [2]: 4.27 µM
- GI50 [3]: 10.8 µM
- TGI [3]: 28.6 µM
- GI50 [5]: 15.2 µM
- TGI [5]: 28.8 µM
- GI50 [6]: 2.71 µM
- TGI [6]: 12.8 µM
- GI50 [7]: 9.48 µM
- TGI [7]: 22.1 µM
- GI50 [8]: 0.265 µM
- TGI [8]: 0.752 µM
- GI50 [9]: 14.9 µM
- TGI [9]: 28.6 µM

SMILES: C=COCCCOc1ccccc1
- TGI [1]: > 100 µM
- GI50 [2]: > 100 µM
- TGI [2]: > 100 µM
- TGI [3]: > 100 µM
- TGI [4]: > 100 µM
- TGI [10]: > 100 µM
- GI50 [5]: > 100 µM
- TGI [5]: > 100 µM
- TGI [6]: > 100 µM
- GI50 [7]: > 100 µM
- TGI [7]: > 100 µM
- TGI [8]: > 100 µM
- TGI [9]: > 100 µM

SMILES: Cc1cc(CC(O)c2ccc(Cl)c(Cl)c2)nc(=O)[nH]1 (stereo not given)
- TGI [1]: 66 µM
- TGI [3]: 85.2 µM
- TGI [4]: 26.8 µM
- TGI [6]: > 100 µM
- TGI [8]: 69.9 µM
- TGI [9]: > 100 µM

SMILES: Clc1nc2ccccc2nc1CI
- GI50 [1]: 19.2 µM
- TGI [1]: 38.6 µM
- GI50 [2]: 6.13 µM
- TGI [2]: 18.2 µM
- GI50 [3]: 2.17 µM
- TGI [3]: 4.06 µM
- GI50 [5]: 17.1 µM
- TGI [5]: 30.8 µM
- GI50 [6]: 1.74 µM
- TGI [6]: > 32.5 µM
- GI50 [7]: 2.35 µM
- TGI [7]: 6.61 µM
- GI50 [8]: 1.77 µM
- TGI [8]: 3.58 µM
- GI50 [9]: 16.2 µM
- TGI [9]: 37.4 µM

SMILES: COC(=O)C1=C(O)c2cc(OC)c(OC)cc2C(c2ccc(OC)c(OC)c2)C1 (stereo not given)
- TGI [1]: > 100 µM
- TGI [3]: > 100 µM
- TGI [4]: > 100 µM
- TGI [10]: > 100 µM
- TGI [6]: > 100 µM

SMILES: COc1cnc2c(c1)C(=O)c1c-2n(CCCNC(C)C)c(=O)c2cc(Cl)ccc12
- GI50 [1]: 0.0902 µM
- TGI [1]: 2.07 µM
- GI50 [2]: 0.698 µM
- TGI [2]: 2.59 µM
- GI50 [3]: 0.111 µM
- TGI [3]: 2 µM
- GI50 [5]: 0.173 µM
- TGI [5]: 2.06 µM
- GI50 [6]: 0.451 µM
- TGI [6]: 2.13 µM
- GI50 [7]: 1.14 µM
- TGI [7]: 2.42 µM
- GI50 [8]: 0.133 µM
- TGI [8]: 1.97 µM
- GI50 [9]: 0.439 µM
- TGI [9]: 2.61 µM

SMILES: C=C1CC[C@@H]2[C@](C)(COC(C)=O)[C@H](OC(C)=O)CC[C@@]2(C)[C@@H]1CC(Sc1ccccc1)C1=CCOC1=O (stereo not given in full)
- GI50 [1]: 2.73 µM
- TGI [1]: 7.77 µM
- GI50 [2]: 1.59 µM
- TGI [2]: 3.99 µM
- GI50 [3]: 1.49 µM
- TGI [3]: 3.98 µM
- GI50 [5]: 1.41 µM
- TGI [5]: 2.74 µM
- GI50 [6]: 0.699 µM
- TGI [6]: 3.69 µM
- GI50 [7]: 1.41 µM
- TGI [7]: 3.58 µM
- GI50 [8]: 1.35 µM
- TGI [8]: 2.98 µM
- GI50 [9]: 1.78 µM
- TGI [9]: 3.77 µM
